These results are taken from publication PMC6154679, “Nine Different Chemical Species and Action Mechanisms of Pancreatic Lipase Ligands Screened Out from Forsythia suspensa Leaves All at One Time” (Molecules : A Journal of Synthetic Chemistry and Natural …, 2017).

For this assay, the target named is T1, pancreatic lipase (PL) (Sus scrofa, UniProt P00591).
T1 construct: gene PNLIP
T1 sequence (P00591 1-450): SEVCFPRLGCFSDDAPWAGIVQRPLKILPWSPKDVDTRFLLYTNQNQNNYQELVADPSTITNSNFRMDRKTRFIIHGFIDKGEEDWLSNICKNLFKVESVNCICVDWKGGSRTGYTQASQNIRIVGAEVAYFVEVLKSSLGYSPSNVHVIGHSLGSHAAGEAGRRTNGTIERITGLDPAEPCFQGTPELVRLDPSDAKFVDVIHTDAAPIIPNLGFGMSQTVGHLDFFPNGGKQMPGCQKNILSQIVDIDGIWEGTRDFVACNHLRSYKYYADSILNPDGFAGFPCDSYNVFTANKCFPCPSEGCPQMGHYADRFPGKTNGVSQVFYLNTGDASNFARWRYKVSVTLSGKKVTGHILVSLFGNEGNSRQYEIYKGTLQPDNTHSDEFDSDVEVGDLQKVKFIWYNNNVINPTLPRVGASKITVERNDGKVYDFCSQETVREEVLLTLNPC
The assay is described as follows: pNPB hydrolysis assay, inhibition rate at […]. It counts as biochemical. Particulars: read-out: % inhibition at 5 μg/mL.

SMILES strings stand for the structures.

In the case of `CCCCCCCCCCC[C@@H](C[C@@H]1OC(=O)[C@H]1CCCCCC)OC(=O)[C@H](CC(C)C)NC=O` [Orlistat], the inhibition at 5 µg/mL is 58%.
